# Measured values reported in US4663329A, “Thienopyridinone derivatives and anti-bacterial compositions containing them” (Sanofi, priority 1984, dated 1987).
# Where two headings read alike, the source gives them in different places.
# Tests used:
# Type in all cases: cell-based
# [1] = tested on: Staphylococcus aureus 53154 IP; experiment: In vitro antibacterial activity, MIC, Staphylococcus aureus 53154 IP; conditions: Staphylococcus aureus 53154 IP, 37° C., pH=7.4, inoculum 10^4
# Description: (§1) Tests carried out in vitro in accordance with the experimental procedure described hereunder have provided evidence of the antibacterial activity in question.
# (§2) For this purpose, the M.I.C. were determined i.e. the minimal inhibiting concentrations of the compound under study acting on the growth of the bacteria at 37° C.
# (§3) The serial dilutions method was used utilizing a MUELLER HINTON gelose medium at pH=7.4 and a bacterial inoculum of 10^4 units forming colonies. This inoculum was applied to the gelose by means of a multiple sowing device.
# (§4) A scale of concentrations ranging from 100 to 0.05 μg/ml of compound to be studied was used starting from mother solutions titrating 1000 μg/ml, all the subsequent dilutions being effected in distilled water.
# [2] = tested on: Streptococcus faecalis 5855 IP; experiment: In vitro antibacterial activity, MIC, Streptococcus faecalis 5855 IP; conditions: 37° C.
# Description: as §1, §2, §3, §4
# [3] = tested on: Escherichia coli 54127 IP; experiment: In vitro antibacterial activity, MIC, Escherichia coli 54127 IP
# Description: as §1, §2, §3, §4
# [4] = tested on: Escherichia coli SOL RL 90; experiment: In vitro antibacterial activity, MIC, Escherichia coli SOL RL 90; conditions: Escherichia coli SOL RL 90, 37° C., pH=7.4, inoculum 10^4
# Description: as §1, §2, §3, §4
# [5] = tested on: Citrobacter freundii GN 346; experiment: In vitro antibacterial activity, MIC, Citrobacter freundii GN 346; conditions: Citrobacter freundii GN 346, 37° C., pH=7.4, inoculum 10^4
# Description: as §1, §2, §3, §4
# [6] = tested on: Proteus vulgaris RL 99 bis; experiment: In vitro antibacterial activity, MIC, Proteus vulgaris RL 99 bis
# Description: as §1, §2, §3, §4
# [7] = tested on: Proteus mirabilis ATCC 21100; experiment: In vitro antibacterial activity, MIC, Proteus mirabilis ATCC 21100; conditions: Proteus mirabilis ATCC 21100, 37° C., pH=7.4, inoculum 10^4
# Description: as §1, §2, §3, §4
# Proteus morganii 1510 = experiment: In vitro antibacterial activity, MIC, Proteus morganii 1510
# Description: as §1, §2, §3, §4
# [8] = tested on: Providencia stuartii 5158; experiment: In vitro antibacterial activity, MIC, Providencia stuartii 5158; conditions: Providencia stuartii 5158, 37° C., pH=7.4, inoculum 10^4
# Description: as §1, §2, §3, §4
# [9] = tested on: Serratia liquefaciens 376; experiment: In vitro antibacterial activity, MIC, Serratia liquefaciens 376; conditions: 37° C.
# Description: as §1, §2, §3, §4
# [10] = tested on: Klebsiella pneumoniae ATCC 10031; experiment: In vitro antibacterial activity, MIC, Klebsiella pneumoniae ATCC 10031; conditions: Klebsiella pneumoniae ATCC 10031, 37° C., pH=7.4, inoculum 10^4
# Description: as §1, §2, §3, §4
# [11] = tested on: Klebsiella pneumoniae R 30; experiment: In vitro antibacterial activity, MIC, Klebsiella pneumoniae R 30; conditions: Klebsiella pneumoniae R 30, 37° C., pH=7.4, inoculum 10^4
# Description: as §1, §2, §3, §4
# [12] = tested on: Enterobacter cloacae P 99; experiment: In vitro antibacterial activity, MIC, Enterobacter cloacae P 99
# Description: as §1, §2, §3, §4
# [13] = tested on: Enterobacter hafniae RO 46; experiment: In vitro antibacterial activity, MIC, Enterobacter hafniae RO 46
# Description: as §1, §2, §3, §4
# Shigella sonnei R 018 = experiment: In vitro antibacterial activity, MIC, Shigella sonnei R 018; conditions: R018, 37° C., pH=7.4, inoculum 10^4
# Description: as §1, §2, §3, §4
# [14] = tested on: Salmonella typhimurium A 222 IP; experiment: In vitro antibacterial activity, MIC, Salmonella typhimurium A 222 IP; conditions: Salmonella typhimurium A 222 IP, 37° C., pH=7.4, inoculum 10^4
# Description: as §1, §2, §3, §4
# [15] = tested on: Salmonella typhi ATCC 6539; experiment: In vitro antibacterial activity, MIC, Salmonella typhi ATCC 6539
# Description: as §1, §2, §3, §4
# [16] = tested on: Bordetella bronchiseptica ATCC 4617; experiment: In vitro antibacterial activity, MIC, Bordetella bronchiseptica ATCC 4617
# Description: as §1, §2, §3, §4
# [17] = tested on: Pseudomonas aeruginosa 8203; experiment: In vitro antibacterial activity, MIC, Pseudomonas aeruginosa 8203; conditions: 37° C.
# Description: as §1, §2, §3, §4
# [18] = tested on: Acinetobacter calcoaceticus C 1733; experiment: In vitro antibacterial activity, MIC, Acinetobacter calcoaceticus C 1733
# Description: as §1, §2, §3, §4
# [19] = tested on: Bacillus subtilis ATCC 6633; experiment: In vitro antibacterial activity, MIC, Bacillus subtilis ATCC 6633; conditions: Bacillus subtilis ATCC 6633; 37° C., pH=7.4, inoculum 10^4
# Description: as §1, §2, §3, §4
# [20] = Enterococcus faecalis, pH=7.4, inoculum 10^4, read-out: MIC
# [21] = pH=7.4, inoculum 10^4, read-out: MIC
# [22] = Salmonella enterica, read-out: MIC
# [23] = ATCC4617, 37° C., pH=7.4, inoculum 10^4, read-out: MIC
# [24] = C1733, 37° C., pH=7.4, inoculum 10^4, read-out: MIC
Structure (SMILES),MIC ([1]; read-out: MIC),"MIC [2, 20]","MIC ([3]; Escherichia coli, 54127IP)","MIC ([4]; SOLRL90, read-out: MIC)","MIC ([5]; GN346, read-out: MIC)","MIC ([6]; Proteus vulgaris, RL99BIS)","MIC ([7]; ATCC21100, read-out: MIC)","MIC (Proteus morganii 1510; Morganella morganii, 1510)",MIC ([8]; read-out: MIC),"MIC [9, 21]","MIC ([10]; ATCC10031, read-out: MIC)","MIC ([11]; R30, read-out: MIC)","MIC ([12]; Enterobacter cloacae, P99)","MIC ([13]; Hafnia alvei, RO46)",MIC (Shigella sonnei R 018),"MIC [14, 22]",MIC ([15]; Salmonella enterica),"MIC [16, 23]","MIC [17, 21]","MIC [18, 24]",further results
"CCn1cc(C(=O)O)c(=O)c2cc([N+](=O)[O-])sc21 [Compound Y, 4,7-dihydro-7-ethyl-2-nitro-4-oxo-thieno[2,3-b]pyridine-5-carboxylic acid, reference compound]",> 100 µg/mL,> 100 µg/mL,3.12 µg/mL,6.25 µg/mL,12.5 µg/mL,3.12 µg/mL,12.5 µg/mL,3.12 µg/mL,12.5 µg/mL,> 100 µg/mL,50 µg/mL,25 µg/mL,50 µg/mL,3.12 µg/mL,3.12 µg/mL,6.25 µg/mL,25 µg/mL,> 100 µg/mL,> 100 µg/mL,> 100 µg/mL,
"CCn1cc(C(=O)O)c(=O)c2cc(C=NOC)sc21 (single isomer, unassigned) [Compound H, 4,7-Dihydro-7-ethyl-2-methoxyiminomethyl-4-oxo-thieno[2,3-b]pyridine-5-carboxylic acid, anti-isomer]",,,,,,,,,,,,,,,,,,,,,"MIC [1]: > 50 µg/mL; MIC ([2]; pH=7.4, inoculum 10^4): > 100 µg/mL; MIC [19]: 0.8 µg/mL; MIC ([3]; Escherichia coli 54127 IP, 37° C., pH=7.4, inoculum 10^4): 1.56 µg/mL; MIC [4]: 6.25 µg/mL; MIC [5]: 6.25 µg/mL; MIC ([6]; Proteus vulgaris RL 99 bis, 37° C., pH=7.4, inoculum 10^4): 1.56 µg/mL; MIC [7]: 0.8 µg/mL; MIC (Proteus morganii 1510; Proteus morganii 1510, 37° C., pH=7.4, inoculum 10^4): 0.8 µg/mL; MIC [8]: 6.25 µg/mL; MIC ([9]; pH=7.4, inoculum 10^4): > 25 µg/mL; MIC [10]: 0.4 µg/mL; MIC [11]: 6.25 µg/mL; MIC ([12]; Enterobacter cloacae P 99, 37° C., pH=7.4, inoculum 10^4): 3.12 µg/mL; MIC ([13]; Enterobacter hafniae RO 46, 37° C., pH=7.4, inoculum 10^4): 3.12 µg/mL; MIC [14]: 12.5 µg/mL; MIC ([15]; Salmonella typhi ATCC 6539, 37° C., pH=7.4, inoculum 10^4): 25 µg/mL; MIC ([16]; 37° C., pH=7.4, inoculum 10^4): > 25 µg/mL; MIC ([17]; pH=7.4, inoculum 10^4): > 25 µg/mL; MIC ([18]; 37° C., pH=7.4, inoculum 10^4): > 25 µg/mL"
"CCn1cc(C(=O)O)c(=O)c2cc(C=Nc3ccccc3)sc21 [Compound J, 4,7-Dihydro-7-ethyl-2-N-phenyl-iminomethyl-4-oxo-thieno[2,3-b]pyridine-5-carboxylic acid]",> 100 µg/mL,> 100 µg/mL,3.12 µg/mL,6.25 µg/mL,12.5 µg/mL,3.12 µg/mL,12.5 µg/mL,3.12 µg/mL,12.5 µg/mL,> 100 µg/mL,50 µg/mL,25 µg/mL,50 µg/mL,3.12 µg/mL,3.12 µg/mL,6.25 µg/mL,25 µg/mL,> 100 µg/mL,> 100 µg/mL,> 100 µg/mL,
"CCn1cc(C(=O)O)c(=O)c2cc(C(=O)O)sc21 [Compound X, 4,7-dihydro-7-ethyl-2-carboxy-4-oxo-thieno[2,3-b]pyridine-5-carboxylic acid, reference compound]",> 100 µg/mL,> 100 µg/mL,,> 100 µg/mL,> 100 µg/mL,,> 100 µg/mL,,> 100 µg/mL,> 100 µg/mL,> 100 µg/mL,> 100 µg/mL,> 100 µg/mL,,> 100 µg/mL,> 100 µg/mL,> 100 µg/mL,> 100 µg/mL,> 100 µg/mL,> 100 µg/mL,"MIC ([3]; Escherichia coli 54127 IP, 37° C., pH=7.4, inoculum 10^4, read-out: MIC): > 100 µg/mL; MIC ([6]; RL99BIS, Proteus vulgaris RL 99 bis, 37° C., pH=7.4, inoculum 10^4, read-out: MIC): > 100 µg/mL; MIC (Proteus morganii 1510; Morganella morganii, Proteus morganii 1510, 37° C., pH=7.4, inoculum 10^4, read-out: MIC): > 100 µg/mL; MIC ([13]; Hafnia alvei, RO46, Enterobacter hafniae RO 46, 37° C., pH=7.4, inoculum 10^4, read-out: MIC): > 100 µg/mL"
